We go through 29 compounds from patent US9850203B2, “Autotaxin inhibitor compounds” (PharmAkea, Inc., priority 2013, dated 2017).

A value given as a limit tells only on which side of the number the result lay.

The experiment addresses human autotaxin (ATX) (Homo sapiens (Human), UniProt Q13822). Put plainly: Human Autotaxin Assay. The conditions noted are these: concentrated conditioned media from Hep3B cells; LPC substrate, choline release. Type of experiment: biochemical. On the procedure:
ATX activity is assayed in concentrated conditioned media from Hep3B human hepatocellular carcinoma cells by measuring the amount of choline released from the substrate, lysophosphatidylcholine (LPC) as it is cleaved to LPA. Conditioned media is collected from confluent Hep3B cells and concentrated 20-fold using Centriprep-30 filter devices (Millipore). To assay for autotaxin inhibition, 10-20 μL of the concentrated conditioned media is incubated with 2.5 μL of a test compound in DMSO and 72.5-82.5 μL lyso-PLD buffer (100 mM Tris pH 9, 500 mM NaCl, 5 mM MgCl2, 5 mM CaCl2, 0.05% Triton X-100 in the presence or absence of 0.2% fatty-acid-free human serum albumin) for 15 min at 37° C. After the 15 min incubation, 5 uL of 2 mM LPC (14:0; Avanti Polar Lipids Cat#855575C) diluted in lyso-PLD buffer is added for a final concentration of 100 uM and the incubation continues for 1.5-3 hours at 37° C.

In general, IC50 refers to the concentration that inhibits the measured activity by half. As for `Cc1c(Sc2cccc(C(=O)O)c2)c2ccc(Cl)c(F)c2n1CC(=O)N1CCC(Cc2ccc(F)cc2)C1` (single isomer, unassigned; enantiomer a) [Compound 1-65, 3-((6-Chloro-7-fluoro-1-(2-(3-(4-fluorobenzyl)pyrrolidin-1-yl)-2-oxoethyl)-2-methyl-1H-indol-3-yl)thio)benzoic acid Enantiomer A], the IC50 was at most 500 nM.
`Cc1c(Sc2cccc(C(=O)O)c2)c2ccc(Cl)c(F)c2n1CC(=O)N1CCC(c2ccc(F)cc2)C1` (single isomer, unassigned; enantiomer a) [Compound 1-74, 3-((6-Chloro-7-fluoro-1-(2-(3-(4-fluorophenyl)pyrrolidin-1-yl)-2-oxoethyl)-2-methyl-1H-indol-3-yl)thio)benzoic acid Enantiomer A] returned an IC50 of 500 to 3000 nM.
As for `Cc1c(Sc2cccc(C(=O)O)c2)c2ccc(Cl)c(F)c2n1CC(=O)N1CCC(Cc2ccc(F)cc2)C1` (single isomer, unassigned; enantiomer b) [Compound 1-66, 3-((6-Chloro-7-fluoro-1-(2-(3-(4-fluorobenzyl)pyrrolidin-1-yl)-2-oxoethyl)-2-methyl-1H-indol-3-yl)thio)benzoic acid Enantiomer B], the IC50 was in the range of 500 to 3000 nM.
For `Cc1c(Sc2cccc(C(=O)O)c2)c2ccc(Cl)c(F)c2n1CC(=O)N1CCC(c2ccc(F)cc2)C1` (single isomer, unassigned; enantiomer b) [Compound 1-75, 3-((6-Chloro-7-fluoro-1-(2-(3-(4-fluorophenyl)pyrrolidin-1-yl)-2-oxoethyl)-2-methyl-1H-indol-3-yl)thio)benzoic acid Enantiomer B], the IC50 was at most 500 nM.
Then `Cc1c(Sc2cccc(C(=O)O)c2)c2ccc(Cl)c(F)c2n1CC(=O)NC(C)C` [Compound 1-1, 3-((6-Chloro-7-fluoro-1-(2-(isopropylamino)-2-oxoethyl)-2-methyl-1H-indol-3-yl)thio)benzoic acid], with at most 500 nM; and `Cc1c(Sc2cccc(C(=O)O)c2)c2ccc(Cl)c(F)c2n1CC(=O)NC1CCCCC1` [Compound 1-2, 3-((6-Chloro-1-(2-(cyclohexylamino)-2-oxoethyl)-7-fluoro-2-methyl-1H-indol-3-yl)thio)benzoic acid], with 500 to 3000 nM; and `Cc1c(Sc2cccc(C(=O)O)c2)c2ccc(Cl)c(F)c2n1CC(=O)Nc1ccccc1` [Compound 1-3, 3-((6-Chloro-7-fluoro-2-methyl-1-(2-oxo-2-(phenylamino)ethyl)-1H-indol-3-yl)thio)benzoic acid], with 500 to 3000 nM.
Turning to `Cc1c(Sc2cccc(C(=O)O)c2)c2ccc(Cl)c(F)c2n1CC(=O)Nc1cc(Cl)cc(Cl)c1` [Compound 1-4, 3-((6-Chloro-1-(2-((3,5-dichlorophenyl)amino)-2-oxoethyl)-7-fluoro-2-methyl-1H-indol-3-yl)thio)benzoic acid], the IC50 was over 3000 nM.
Then `Cc1c(Sc2cccc(C(=O)O)c2)c2ccc(Cl)c(F)c2n1CC(=O)NCC(F)(F)F` [Compound 1-5, 3-((6-Chloro-7-fluoro-2-methyl-1-(2-oxo-2-((2,2,2-trifluoroethyl)amino)ethyl)-1H-indol-3-yl)thio)benzoic acid], with at most 500 nM; and `Cc1c(Sc2cccc(C(=O)O)c2)c2ccc(Cl)c(F)c2n1CC(=O)Nc1cnn(C)c1` [Compound 1-6, 3-((6-Chloro-7-fluoro-2-methyl-1-(2-((1-methyl-1H-pyrazol-4-yl)amino)-2-oxoethyl)-1H-indol-3-yl)thio)benzoic acid], with at most 500 nM; and `Cc1c(Sc2cccc(C(=O)O)c2)c2ccc(Cl)c(F)c2n1CC(=O)N(C)C` [Compound 1-7, 3-((6-Chloro-1-(2-(dimethylamino)-2-oxoethyl)-7-fluoro-2-methyl-1H-indol-3-yl)thio)benzoic acid], with at most 500 nM.
For `Cc1c(Sc2cccc(C(=O)O)c2)c2ccc(Cl)c(F)c2n1CC(=O)N(C)c1ccccc1` [Compound 1-8, 3-((6-Chloro-7-fluoro-2-methyl-1-(2-(methyl(phenyl)amino)-2-oxoethyl)-1H-indol-3-yl)thio)benzoic acid], the concentration for half-maximal inhibition (IC50) lay within 500 to 3000 nM.
`Cc1c(Sc2cccc(C(=O)O)c2)c2ccc(Cl)c(F)c2n1CC(=O)N1CCCC1` [Compound 1-9, 3-((6-Chloro-7-fluoro-2-methyl-1-(2-oxo-2-(pyrrolidin-1-yl)ethyl)-1H-indol-3-yl)thio)benzoic acid] gave an IC50 of at most 500 nM.
As to `Cc1c(Sc2cccc(C(=O)O)c2)c2ccc(Cl)c(F)c2n1CC(=O)N1CCCCC1` [Compound 1-10, 3-((6-Chloro-7-fluoro-2-methyl-1-(2-oxo-2-(piperidin-1-yl)ethyl)-1H-indol-3-yl)thio)benzoic acid], the IC50 is at most 500 nM.
`Cc1c(Sc2cccc(C(=O)O)c2)c2ccc(Cl)c(F)c2n1CC(=O)Nc1cnoc1` [Compound 1-11, 3-((6-Chloro-7-fluoro-1-(2-(isoxazol-4-ylamino)-2-oxoethyl)-2-methyl-1H-indol-3-yl)thio)benzoic acid]: the IC50 was 500 to 3000 nM.
As to `Cc1c(Sc2cccc(C(=O)O)c2)c2ccc(Cl)c(F)c2n1CC(=O)N1CCC2(CC1)CNC(=O)O2` [Compound 1-12], the IC50 is at most 500 nM.
Compound `Cc1c(Sc2cccc(C(=O)O)c2)c2ccc(Cl)c(F)c2n1CC(=O)N1CCC(OCc2ccc(F)c(F)c2)CC1` [Compound 1-13, 3-((6-Chloro-1-(2-(4-((3,4-difluorobenzyl)oxy)piperidin-1-yl)-2-oxoethyl)-7-fluoro-2-methyl-1H-indol-3-yl)thio)benzoic acid] displayed an IC50 of at most 500 nM.
Then `Cc1c(Sc2cccc(C(=O)O)c2)c2ccc(Cl)c(F)c2n1CC(=O)N1CCc2ccccc21` [Compound 1-14, 3-((6-Chloro-7-fluoro-1-(2-(indolin-1-yl)-2-oxoethyl)-2-methyl-1H-indol-3-yl)thio)benzoic acid], with at most 500 nM; and `Cc1c(Sc2cccc(C(=O)O)c2)c2ccc(Cl)c(F)c2n1CC(=O)N1CCCC(Cc2ccc(F)cc2)C1` (centres unmarked) [Compound 1-15, 3-((6-Chloro-7-fluoro-1-(2-(3-(4-fluorobenzyl)piperidin-1-yl)-2-oxoethyl)-2-methyl-1H-indol-3-yl)thio)benzoic acid], with 500 to 3000 nM.
Then `Cc1c(Sc2cccc(C(=O)O)c2)c2ccc(Cl)c(F)c2n1CC(=O)N1CCC2(CC1)CC(=O)C2` [Compound 1-18, 3-((6-Chloro-7-fluoro-2-methyl-1-(2-oxo-2-(2-oxo-7-azaspiro[3.5]nonan-7-yl)ethyl)-1H-indol-3-yl)thio)benzoic acid], with at most 500 nM; and `Cc1c(Sc2cccc(C(=O)O)c2)c2ccc(Cl)c(F)c2n1CC(=O)N1CCC2(CC1)CC(C#N)C2` [Compound 1-19, 3-((6-Chloro-1-(2-(2-cyano-7-azaspiro[3.5]nonan-7-yl)-2-oxoethyl)-7-fluoro-2-methyl-1H-indol-3-yl)thio)benzoic acid], with at most 500 nM.
Compound `Cc1c(Sc2cccc(C(=O)O)c2)c2ccc(Cl)c(F)c2n1CC(=O)N1CCC(OCc2ccc(F)cc2)C1` (centres unmarked) [Compound 1-22, 3-((6-Chloro-7-fluoro-1-(2-(3-((4-fluorobenzyl)oxy)pyrrolidin-1-yl)-2-oxoethyl)-2-methyl-1H-indol-3-yl)thio)benzoic acid] had an IC50 of at most 500 nM.
The figure for `Cc1c(Sc2cccc(C(=O)O)c2)c2ccc(Cl)c(F)c2n1CCC(=O)N1CCCC1` [Compound 1-25, 3-((6-Chloro-7-fluoro-2-methyl-1-(3-oxo-3-(pyrrolidin-1-yl)propyl)-1H-indol-3-yl)thio)benzoic acid] is at most 500 nM.
`Cc1c(Sc2cccc(C(=O)O)c2)c2ccc(Cl)c(F)c2n1CCC(=O)N1CCc2ccccc21` [Compound 1-26, 3-((6-Chloro-7-fluoro-1-(3-(indolin-1-yl)-3-oxopropyl)-2-methyl-1H-indol-3-yl)thio)benzoic acid] registered an IC50 of at most 500 nM.
With `Cc1c(Sc2cccc(C(=O)O)c2)c2ccc(Cl)c(F)c2n1CC(=O)N1CC2(CC2)c2ccccc21` [Compound 1-31, 3-((6-Chloro-7-fluoro-2-methyl-1-(2-oxo-2-(spiro[cyclopropane-1,3′-indolin]-1′-yl)ethyl)-1H-indol-3-yl)thio)benzoic acid], the IC50 is at most 500 nM.
The figure for `Cc1c(Sc2cccc(C(=O)O)c2)c2ccc(Cl)c(F)c2n1CC(=O)N1CC2(CC2)c2cc(F)ccc21` [Compound 1-32, 3-((6-Chloro-7-fluoro-1-(2-(5′-fluorospiro[cyclopropane-1,3′-indolin]-1′-yl)-2-oxoethyl)-2-methyl-1H-indol-3-yl)thio)benzoic acid] is at most 500 nM; for `Cc1c(Sc2cccc(C(=O)O)c2)c2ccc(Cl)c(F)c2n1CC(=O)N1CC2(CCC2)c2c(F)cccc21` [Compound 1-33, 3-((6-Chloro-7-fluoro-1-(2-(4′-fluorospiro[cyclobutane-1,3′-indolin]-1′-yl)-2-oxoethyl)-2-methyl-1H-indol-3-yl)thio)benzoic acid] it is at most 500 nM; for `Cc1c(Sc2cccc(C(=O)O)c2)c2ccc(Cl)c(F)c2n1CC(=O)N1CC(C)(C)c2ccc(F)cc21` [Compound 1-34, 3-((6-Chloro-7-fluoro-1-(2-(6-fluoro-3,3-dimethylindolin-1-yl)-2-oxoethyl)-2-methyl-1H-indol-3-yl)thio)benzoic acid] it is at most 500 nM.
For `Cc1c(Sc2cccc(C(=O)O)c2)c2ccc(Cl)c(F)c2n1CC(=O)N1CCCC2(CNC(=O)C2)C1` (centres unmarked) [Compound 1-35, 3-((6-Chloro-7-fluoro-2-methyl-1-(2-oxo-2-(3-oxo-2,7-diazaspiro[4.5]decan-7-yl)ethyl)-1H-indol-3-yl)thio)benzoic acid], the IC50 was at most 500 nM.
